Patent publication US20050209278A1, “Piperidinyl- and piperazinyl-sulfonylmethyl hydroxamic acids and their use as protease inhibitors” (priority 2002, published 2005)
“And” between values parts separate entries of the source, which are not always exact repeats. Identical values can stand only once.

Biological target: T1, MMP-14 (Homo sapiens, UniProt P50281)
T1 construct: The catalytic domain enzyme was expressed in E. coli inclusion bodies, solubilized in urea; made in house
Assay: In vitro MMP inhibition, IC50 determination (fluorogenic substrate I)
Type: biochemical
Conditions: value in parentheses; read-out: MMP-14 (IC-50)
Procedure: Several hydroxamic acids and salts thereof were analyzed in in vitro assays to determine their ability to inhibit the MMP cleavage of peptide substrates. […] and IC50 constants were calculated from the assayed hydroxamic acid-MMP interactions. Human recombinant MMP-1, MMP-2, MMP-9, MMP-13, and MMP-14 were used in this assay. All enzymes were prepared in Assignee's laboratories following usual laboratory procedures. Protocols for the preparation and use of these enzymes are available in the scientific literature. See, e.g., Enzyme Nomenclature (Academic Press, San Diego, Calif., 1992) (and the citations therein). See also, Freije et al., “Molecular cloning and expression of collagenase-3, a novel human matrix metalloproteinase produced by breast carcinomas,” J Biol. Chem., 269(24), 16766-16773 (1994). The MMP-14 full length cDNA was provided by Dr. Gregory Goldberg of Washington University (St. Louis, Mo.). The catalytic domain enzyme was expressed in E. coli inclusion bodies, solubilized in urea, purified on a preparative […] reverse phase HPLC column, and then refolded in the presence of zinc acetate and purified for use. All MMPs were activated using 4-aminophenylmercuric acetate (“APMA”, Sigma Chemical, St. Louis, Mo.) or trypsin. MMP-9 also was activated using human recombinant MMP-3 (purified in Assignee's laboratory following standard cloning and purification techniques). […] Substrate (I) was purchased from Baychem (Redwood City, Calif.), and substrate II was prepared Assignee's laboratory. Substrate I was used in the IC50 determination assays, while substrate II was used in the Ki determination assays. In the absence of MMP inhibitory activity, either substrate is cleaved at the Gly-Leu peptide bond. […] The stock solutions of the assayed hydroxamic acids (or salts thereof) were prepared in 1% dimethyl sulfoxide (DMSO). […] The experiment controls contained the same amount of Buffer A/DMSO as the assayed sample, but contained no hydroxamic acid (or salt thereof). The assays from which the IC50 determinations were made were performed as follows. […] Louis, Mo.). The assayed hydroxamic acid samples were incubated in MicrofluorTM White Plates (Dynatech, Chantilly, Va.) and analyzed on a Perkin Elmer […] plate reader (Norwalk, Conn.). The excitation wavelength was 328 nm, and the emission wavelength-415 nm. […] As stated in the previous paragraph, samples containing varying concentrations of the same assayed hydroxamic acid were prepared. Inhibition was measured as a reduction in fluorescent intensity as a function of MMP inhibitor concentration. […] All values in Table 2 are given in nM units. The IC50 measurements are in parenthesis.

SMILES	IC50
CCCCOc1ccc(N2CCN(S(=O)(=O)C3(C(=O)NO)CCN(c4ccc(C)cc4)CC3)CC2)cc1 [Example 295]	> 10 µM
CCCCOc1ccc(N2CCN(S(=O)(=O)C3(C(=O)NO)CCN(c4ccc(C)cc4)CC3)CC2)cc1F [Example 296]	> 10 µM
COCCOc1ccc(N2CCN(S(=O)(=O)C3(C(=O)NO)CCN(C4CC4)CC3)CC2)cc1F [Example 297]	> 10 µM and 6.47 µM
CCCCOc1ccc(N2CCN(S(=O)(=O)C3(C(=O)NO)CCN(CC4CC4)CC3)CC2)cc1 [Example 298]	> 10 µM
CCCCOc1ccc(N2CCN(S(=O)(=O)C3(C(=O)NO)CCN(C4CC4)CC3)CC2)cc1 [Example 301]	5.63 µM
C#CCN1CCC(C(=O)NO)(S(=O)(=O)N2CCN(c3ccc(OCCCC)cc3)CC2)CC1 [Example 303]	2.24 µM
